Columns and labels:
Assay in all cases: radiometric filter-binding kinase assay, Kinase HotSpot
Conditions in all cases: compound 0.5 µM; ATP 10 µM
[1] = target: AKT2 (human) (UniProt P31751)
[2] = target: AXL (human) (UniProt P30530)
[3] = target: CDK2 CCNE1 (human) (UniProt P24941+P24864)
[4] = target: CDK6 CCND1 (human) (UniProt Q00534+P24385)
[5] = target: CLK2 (human) (UniProt P49760)
[6] = target: CSNK1A1 (human) (UniProt P48729)
[7] = target: EGFR (human) (UniProt P00533)
[8] = target: FER (human) (UniProt P16591)
[9] = target: IKBKE (human) (UniProt Q14164)
[10] = target: LCK (human) (UniProt P06239)
[11] = target: LRRK2 (human) (UniProt Q5S007)
[12] = target: MAP3K2 (human) (UniProt Q9Y2U5)
[13] = target: MAP4K5 (human) (UniProt Q9Y4K4)
[14] = target: MAPK3 (human) (UniProt P27361)
[15] = target: MAPKAPK5 (human) (UniProt Q8IW41)
[16] = target: MARK3 (human) (UniProt P27448)
[17] = target: MET (human) (UniProt P08581)
[18] = target: MST1R (human) (UniProt Q04912)
[19] = target: NEK11 (human) (UniProt Q8NG66)
[20] = target: PAK6 (human) (UniProt Q9NQU5)
[21] = target: PAK7 (human) (UniProt Q9P286)
[22] = target: PDPK1 (human) (UniProt O15530)
[23] = target: PHKG1 (human) (UniProt Q16816)
[24] = target: PRKCZ (human) (UniProt Q05513)
[25] = target: RET (human) (UniProt P07949)
[26] = target: ROCK1 (human) (UniProt Q13464)
[27] = target: SIK2 (human) (UniProt Q9H0K1)
[28] = target: SRPK1 (human) (UniProt Q96SB4)
[29] = target: STK10 (human) (UniProt O94804)
[30] = target: STK33 (human) (UniProt Q9BYT3)
[31] = target: STK4 (human) (UniProt Q13043)
[32] = target: TBK1 (human) (UniProt Q9UHD2)
[33] = target: TGFBR2 (human) (UniProt P37173)
[34] = target: ULK1 (human) (UniProt O75385)
[35] = target: YES1 (human) (UniProt P07947)
[36] = target: BRAF (human) (UniProt P15056)

Sequence of STK10 (human) (O94804 whole entry, looked up): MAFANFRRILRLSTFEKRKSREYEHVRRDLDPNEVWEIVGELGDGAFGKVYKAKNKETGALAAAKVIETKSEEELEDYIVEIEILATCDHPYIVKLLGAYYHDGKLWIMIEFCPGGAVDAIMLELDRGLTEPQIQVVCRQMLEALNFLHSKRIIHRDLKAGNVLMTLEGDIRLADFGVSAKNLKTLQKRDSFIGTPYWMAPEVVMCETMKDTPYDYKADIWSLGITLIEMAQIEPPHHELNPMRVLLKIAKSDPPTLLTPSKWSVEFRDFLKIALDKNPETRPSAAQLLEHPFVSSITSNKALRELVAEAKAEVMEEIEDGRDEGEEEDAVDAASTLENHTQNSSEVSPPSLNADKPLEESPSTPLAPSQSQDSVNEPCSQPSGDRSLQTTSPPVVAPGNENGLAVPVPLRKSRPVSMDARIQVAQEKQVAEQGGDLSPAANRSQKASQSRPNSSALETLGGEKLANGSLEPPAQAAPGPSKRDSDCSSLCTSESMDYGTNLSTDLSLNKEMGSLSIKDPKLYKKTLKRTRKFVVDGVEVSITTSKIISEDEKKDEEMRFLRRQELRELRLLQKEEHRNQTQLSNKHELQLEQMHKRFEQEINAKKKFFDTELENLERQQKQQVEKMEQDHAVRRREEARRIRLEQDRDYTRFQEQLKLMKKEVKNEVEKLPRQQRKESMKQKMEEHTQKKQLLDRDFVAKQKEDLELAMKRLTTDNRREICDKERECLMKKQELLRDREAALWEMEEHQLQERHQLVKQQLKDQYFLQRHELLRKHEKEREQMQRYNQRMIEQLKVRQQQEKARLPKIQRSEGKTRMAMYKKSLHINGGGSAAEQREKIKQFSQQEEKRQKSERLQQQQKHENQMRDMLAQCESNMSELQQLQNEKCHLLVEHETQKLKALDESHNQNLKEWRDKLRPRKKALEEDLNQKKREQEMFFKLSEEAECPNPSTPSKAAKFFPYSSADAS
Sequence of PRKCZ (human) (Q05513 whole entry, looked up): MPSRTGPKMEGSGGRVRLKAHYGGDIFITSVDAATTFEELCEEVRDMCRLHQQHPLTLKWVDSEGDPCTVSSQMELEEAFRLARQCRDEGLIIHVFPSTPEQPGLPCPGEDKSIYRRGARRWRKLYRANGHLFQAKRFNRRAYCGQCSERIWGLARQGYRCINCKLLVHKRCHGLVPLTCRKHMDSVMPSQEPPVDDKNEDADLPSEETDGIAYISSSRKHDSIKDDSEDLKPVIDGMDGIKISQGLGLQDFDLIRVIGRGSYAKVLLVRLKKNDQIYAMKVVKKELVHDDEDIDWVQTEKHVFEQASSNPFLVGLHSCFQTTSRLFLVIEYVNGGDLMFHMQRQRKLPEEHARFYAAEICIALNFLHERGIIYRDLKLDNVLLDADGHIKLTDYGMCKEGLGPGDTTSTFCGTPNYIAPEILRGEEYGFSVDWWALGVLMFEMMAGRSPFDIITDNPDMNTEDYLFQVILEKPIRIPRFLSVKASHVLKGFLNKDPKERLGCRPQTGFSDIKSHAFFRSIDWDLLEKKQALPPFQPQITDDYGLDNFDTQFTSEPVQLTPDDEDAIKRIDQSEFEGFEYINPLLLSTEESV
Sequence of SIK2 (human) (Q9H0K1 whole entry, looked up): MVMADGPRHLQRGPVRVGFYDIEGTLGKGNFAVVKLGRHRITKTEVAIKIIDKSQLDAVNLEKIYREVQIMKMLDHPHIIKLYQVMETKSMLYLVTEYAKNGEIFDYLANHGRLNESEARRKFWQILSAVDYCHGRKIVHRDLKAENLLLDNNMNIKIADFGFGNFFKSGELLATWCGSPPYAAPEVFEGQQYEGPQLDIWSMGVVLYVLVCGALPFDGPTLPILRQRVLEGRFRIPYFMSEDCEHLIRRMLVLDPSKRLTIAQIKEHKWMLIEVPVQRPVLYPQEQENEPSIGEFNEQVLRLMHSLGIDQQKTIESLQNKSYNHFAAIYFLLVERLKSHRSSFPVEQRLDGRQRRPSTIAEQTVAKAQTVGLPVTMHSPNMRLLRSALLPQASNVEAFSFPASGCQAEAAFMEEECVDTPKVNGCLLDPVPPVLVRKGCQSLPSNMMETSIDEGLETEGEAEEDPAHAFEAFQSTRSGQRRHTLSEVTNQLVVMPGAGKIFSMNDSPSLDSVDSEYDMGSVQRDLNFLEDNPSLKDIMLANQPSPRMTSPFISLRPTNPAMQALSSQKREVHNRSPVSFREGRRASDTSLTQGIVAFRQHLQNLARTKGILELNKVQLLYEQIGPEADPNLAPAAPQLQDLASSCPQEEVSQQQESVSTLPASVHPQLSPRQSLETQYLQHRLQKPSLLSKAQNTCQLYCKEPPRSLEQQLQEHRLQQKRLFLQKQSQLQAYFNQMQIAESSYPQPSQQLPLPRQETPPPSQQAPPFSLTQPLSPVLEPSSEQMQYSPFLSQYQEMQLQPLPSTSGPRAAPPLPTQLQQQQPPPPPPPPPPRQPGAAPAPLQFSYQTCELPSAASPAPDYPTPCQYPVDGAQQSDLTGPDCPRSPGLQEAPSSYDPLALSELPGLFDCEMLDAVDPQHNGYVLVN
Sequence of NEK11 (human) (Q8NG66 whole entry, looked up): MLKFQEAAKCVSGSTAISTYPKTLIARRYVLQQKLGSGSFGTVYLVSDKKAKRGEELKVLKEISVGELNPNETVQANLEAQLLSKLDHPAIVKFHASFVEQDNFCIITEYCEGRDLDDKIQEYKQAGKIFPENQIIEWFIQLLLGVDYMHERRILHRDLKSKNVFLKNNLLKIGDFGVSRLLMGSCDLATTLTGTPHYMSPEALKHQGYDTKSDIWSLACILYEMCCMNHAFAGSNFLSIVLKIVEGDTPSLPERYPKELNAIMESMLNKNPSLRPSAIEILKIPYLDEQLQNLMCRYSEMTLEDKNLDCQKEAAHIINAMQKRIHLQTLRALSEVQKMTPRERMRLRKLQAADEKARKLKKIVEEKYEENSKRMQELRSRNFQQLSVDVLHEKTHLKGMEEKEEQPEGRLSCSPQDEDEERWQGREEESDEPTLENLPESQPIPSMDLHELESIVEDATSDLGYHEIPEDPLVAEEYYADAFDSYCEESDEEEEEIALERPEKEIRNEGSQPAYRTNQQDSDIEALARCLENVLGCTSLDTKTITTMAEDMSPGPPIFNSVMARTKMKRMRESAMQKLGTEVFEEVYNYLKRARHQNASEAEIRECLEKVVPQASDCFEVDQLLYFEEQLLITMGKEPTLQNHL
Sequence of SRPK1 (human) (Q96SB4 whole entry, looked up): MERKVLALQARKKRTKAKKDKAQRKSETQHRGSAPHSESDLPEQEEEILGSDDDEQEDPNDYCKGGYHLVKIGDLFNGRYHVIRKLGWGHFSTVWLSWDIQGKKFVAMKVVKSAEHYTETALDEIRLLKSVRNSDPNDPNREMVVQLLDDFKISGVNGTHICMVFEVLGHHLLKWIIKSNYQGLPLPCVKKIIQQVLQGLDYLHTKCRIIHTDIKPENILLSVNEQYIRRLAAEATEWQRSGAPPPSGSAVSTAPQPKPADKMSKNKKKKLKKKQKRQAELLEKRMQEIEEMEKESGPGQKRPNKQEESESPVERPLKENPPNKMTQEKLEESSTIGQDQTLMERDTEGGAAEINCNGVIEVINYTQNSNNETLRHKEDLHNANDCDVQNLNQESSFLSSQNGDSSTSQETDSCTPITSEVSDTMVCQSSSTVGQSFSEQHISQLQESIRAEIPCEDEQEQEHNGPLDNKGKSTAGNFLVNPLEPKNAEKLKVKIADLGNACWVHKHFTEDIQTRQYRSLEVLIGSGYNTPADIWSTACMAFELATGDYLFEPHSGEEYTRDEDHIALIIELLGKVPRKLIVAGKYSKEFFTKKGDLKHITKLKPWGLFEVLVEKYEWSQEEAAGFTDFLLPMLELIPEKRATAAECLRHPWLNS
Sequence of EGFR (human) (P00533 whole entry, looked up): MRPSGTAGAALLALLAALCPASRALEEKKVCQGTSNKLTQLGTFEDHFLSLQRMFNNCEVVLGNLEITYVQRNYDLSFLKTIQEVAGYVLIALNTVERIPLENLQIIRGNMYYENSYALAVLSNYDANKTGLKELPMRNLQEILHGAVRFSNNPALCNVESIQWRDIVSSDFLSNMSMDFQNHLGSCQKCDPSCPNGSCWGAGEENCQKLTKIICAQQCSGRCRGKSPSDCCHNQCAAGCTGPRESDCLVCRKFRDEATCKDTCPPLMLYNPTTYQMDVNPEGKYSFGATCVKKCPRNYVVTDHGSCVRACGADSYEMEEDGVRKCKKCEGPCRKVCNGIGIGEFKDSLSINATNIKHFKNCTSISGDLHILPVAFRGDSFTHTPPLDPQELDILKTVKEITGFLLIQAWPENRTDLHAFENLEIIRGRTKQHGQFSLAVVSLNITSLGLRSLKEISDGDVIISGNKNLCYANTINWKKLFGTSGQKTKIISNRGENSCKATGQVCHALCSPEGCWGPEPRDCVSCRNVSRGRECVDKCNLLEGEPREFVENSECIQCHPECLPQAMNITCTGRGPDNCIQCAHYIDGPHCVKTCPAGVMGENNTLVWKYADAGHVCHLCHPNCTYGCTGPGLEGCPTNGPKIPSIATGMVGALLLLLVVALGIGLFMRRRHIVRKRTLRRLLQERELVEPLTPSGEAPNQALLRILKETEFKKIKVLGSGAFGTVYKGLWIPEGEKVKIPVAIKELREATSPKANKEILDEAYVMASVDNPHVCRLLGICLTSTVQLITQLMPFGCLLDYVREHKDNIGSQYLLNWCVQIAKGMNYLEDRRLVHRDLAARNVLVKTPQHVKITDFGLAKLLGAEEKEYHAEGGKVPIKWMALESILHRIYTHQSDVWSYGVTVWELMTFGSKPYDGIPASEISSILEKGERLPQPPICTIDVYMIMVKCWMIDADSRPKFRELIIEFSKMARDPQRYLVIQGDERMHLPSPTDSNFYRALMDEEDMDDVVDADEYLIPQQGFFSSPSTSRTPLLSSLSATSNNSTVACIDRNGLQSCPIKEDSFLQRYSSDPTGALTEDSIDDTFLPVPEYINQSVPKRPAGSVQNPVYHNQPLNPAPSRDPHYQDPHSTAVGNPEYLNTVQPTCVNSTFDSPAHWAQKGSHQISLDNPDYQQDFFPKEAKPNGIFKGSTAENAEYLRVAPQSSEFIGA

Row | Compound | residual activity [1] [%] | residual activity [2] [%] | residual activity [4] [%] | residual activity [5] [%] | residual activity [6] [%] | residual activity [8] [%] | residual activity [9] [%] | residual activity [10] [%] | residual activity [11] [%] | residual activity [12] [%] | residual activity [13] [%] | residual activity [14] [%] | residual activity [15] [%] | residual activity [16] [%] | residual activity [18] [%] | residual activity [19] [%] | residual activity [20] [%] | residual activity [21] [%] | residual activity [22] [%] | residual activity [23] [%] | also measured
1 | O=C(c1ccccc1)c1ccc(N2CCOCC2)cc1O | 97.9 | 95.1 | 97.8 | 106 | 110 | 94.2 | 101 | 101 | 95.4 | 102 | 100 | 102 | 99.8 | 105 | 106 | 97.7 | 93.6 | 99.2 | 101 | 97.4 | residual activity [3]: 99.6%; residual activity [7]: 94.9%; residual activity [17]: 115%; residual activity [24]: 85%; residual activity [25]: 97.8%; residual activity [26]: 93.4%; residual activity [27]: 100%; residual activity [28]: 94.2%; residual activity [29]: 97.9%; residual activity [30]: 108%; residual activity [31]: 103%; residual activity [32]: 100%; residual activity [33]: 109%; residual activity [34]: 98.9%; residual activity [35]: 103%
2 | COc1cc2ncnc(Nc3ccc(O)c(Br)c3)c2cc1OC | 98.7 | 89.4 | 95.4 | 96.7 | 89.6 | 85.2 | 94.6 | 48.9 | 82.7 | 92.4 | 28.9 | 97 | 98.7 | 98.8 | 101 | 103 | 92.8 | 97.7 | 96.6 | 71.9 | residual activity [3]: 95.7%; residual activity [7]: 2.22%; residual activity [17]: 96.4%; residual activity [24]: 93%; residual activity [25]: 21.4%; residual activity [26]: 96.1%; residual activity [27]: 92.2%; residual activity [28]: 91.8%; residual activity [29]: 14.5%; residual activity [30]: 80.7%; residual activity [31]: 90%; residual activity [32]: 84.7%; residual activity [33]: 105%; residual activity [34]: 87.2%; residual activity [35]: 34.6%
3 | N/C(=N\N=C/c1ccc(-c2cccc([N+](=O)[O-])c2)o1)N[N+](=O)[O-] | 99.7 | 100 | 100 | 88.3 | 113 | 94.7 | 101 | 98.6 | 91 | 97 | 109 | 88.4 | 94.6 | 107 | 97.6 | 110 | 99 | 97 | 94.6 | 101 | residual activity [7]: 100%; residual activity [17]: 96.3%; residual activity [24]: 90.1%; residual activity [25]: 99.9%; residual activity [26]: 91.7%; residual activity [27]: 91.6%; residual activity [28]: 94.9%; residual activity [29]: 99.6%; residual activity [30]: 102%; residual activity [31]: 96.5%; residual activity [32]: 104%; residual activity [33]: 123%; residual activity [34]: 93.7%; residual activity [35]: 95.6%
4 | O=C1NC(=O)c2c1c1c3ccccc3[nH]c1c1[nH]c3cc(Br)ccc3c21 | 86.9 | 82.9 | 12.2 | 84.7 | 95.4 | 88.9 | 83.4 | 88.9 | 49.8 | 100 | 42.3 | 108 | 86.2 | 57.3 | 101 | 109 | 97.7 | 96.7 | 66.1 | 40.7 | residual activity [3]: 74.9%; residual activity [7]: 100%; residual activity [17]: 76.6%; residual activity [24]: 91.8%; residual activity [25]: 80.1%; residual activity [26]: 93.9%; residual activity [27]: 80.4%; residual activity [28]: 86.4%; residual activity [29]: 84.6%; residual activity [30]: 71.9%; residual activity [31]: 52%; residual activity [32]: 53.5%; residual activity [33]: 61.8%; residual activity [34]: 99.2%; residual activity [35]: 88.4%
5 | O=S(=O)(NCCNC/C=C/c1ccc(Br)cc1)c1cccc2cnccc12 | 75.4 | 112 | 77.9 | 106 | 57.9 | 97.6 | 92.3 | 103 | 86.2 | 91.5 | 30.9 | 84.8 | 90.2 | 96.2 | 97.4 | 92.7 | 85.5 | 91.4 | 94.1 | 91.6 | residual activity [36]: 99.8%; residual activity [3]: 99.3%; residual activity [24]: 79.8%; residual activity [25]: 102%; residual activity [26]: 37.8%; residual activity [27]: 95%; residual activity [29]: 89.2%; residual activity [30]: 79.5%; residual activity [31]: 92.6%; residual activity [32]: 101%; residual activity [33]: 92.1%; residual activity [34]: 102%; residual activity [35]: 91.6%
6 | CCCCc1c(-c2ccc(O)cc2)[nH]c2nccnc12 | 95.3 | 103 | 61.6 | 76.4 | 92.9 | 55.6 | 88.3 | 86.8 | 80 | 77.2 | 65.3 | 101 | 93.1 | 88.2 | 101 | 92.5 | 94.3 | 82.9 | 95.9 | 86.7 | residual activity [36]: 99.3%; residual activity [3]: 29.9%; residual activity [17]: 82.7%; residual activity [24]: 97.4%; residual activity [25]: 52.6%; residual activity [26]: 98.6%; residual activity [27]: 95.9%; residual activity [28]: 101%; residual activity [29]: 82.8%; residual activity [30]: 80.8%; residual activity [31]: 78.3%; residual activity [32]: 82.1%; residual activity [33]: 55%; residual activity [34]: 82.5%; residual activity [35]: 46.5%
